{"source": "paper PMC11784013", "about": "“Potassium molybdate blocks APN-dependent coronavirus entry by degrading receptor via PIK3C3-mediated autophagy” (Journal of Virology, 2024)", "key": {"[1]": {"test_system": "PRCV", "assay": "PRCV entry assay in ST cells", "format": "cell-based, porcine respiratory coronavirus", "conditions": "PM 10 mM, PRCV 0.1 MOI, 1 or 2 h at 37°C, RT-qPCR and IFA", "description": "Fig. S4. […] (A and B) Entry assay. ST cells were infected with 0.1\nMOI PRCV for 1 h at 4 °C, and were then treated with PM (10 mΜ) or H2O for 1 h or 2 h at 37 °C. The cells samples were washed using sodium citrate buffer and detected by RT-qPCR (A) and IFA (B), Scale bar: 50 μm /5 μm. Results are presented as mean ± SD of data from three independent experiments ***, (also on this page, place not known: 0.0 0.5 1.0 1.5 Relative genomic RNA level *** *** DAPIPRCV PM H2O 1h 2h 1 2 3 4 5 H2O PM Viral load (log copies/ul) *** *** 1h 2h CollectedPM/H2O) […]"}, "[2]": {"test_system": "PIK3C3", "assay": "PIK3C3 expression in ST cells (western blot)", "format": "cell-based, porcine", "conditions": "PM 10 mM, 16 h; for PIK3C3 level, western blot, relative to WT without PM (=1): PRCV 0.1 MOI", "description": "Fig 7 PM degrades APN expression via activating PIK3C3-mediated autophagy. (A) Graphical representation for autophagy and the targets of different autophagy inhibitors. (B) ST cells were treated with PM (10 mM) in the presence and absence of 3-MA (20 mM), SBI0206965 (20 µM), and 3BDO (30 µM) for 16 h, and the APN expression was detected by western blot. (C) ST cells were treated with PM (10 mM) in the presence and absence of 3-MA (20 mM) for 16 h, and the APN, PIK3C3, ATG14, BECN1, P62, and LC3 were measured by western blot. (D) ST cells were transfected with PIK3C3 siRNA-1, PIK3C3 siRNA-2, PIK3C3 siRNA-3, PIK3C3 siRNA-4, and NC siRNA for 24 h, the PIK3C3 expression was detected by western blot. (E) ST cells were transfected with PIK3C3 siRNA-4 or NC siRNA for 24 h and then treated with PM (10 mM) for 16 h. The APN, PIK3C3, ATG14, BECN1, P62, and LC3 were detected by western blot. (F) Sequencing diagram for WT ST cells and PIK3C3 KO ST cells. (G) PIK3C3 was detected by western blot in WT ST cells and PIK3C3 KO ST cells. (H) WT ST cells and PIK3C3 KO ST cells were treated with PM (10 mM) for 16 h and then the APN, PIK3C3, ATG14, BECN1, P62, and LC3 were detected by western blot. (I) WT ST cells and PIK3C3 KO ST cells were transfected with pCMV-Myc and pCMV-Myc-PIK3C3, respectively, for 24 h and treated with PM (10 mM) for 16 h. The APN, PIK3C3, P62, and LC3 were detected by western blot. All western blot results were calculated by Image J. All experiments were performed in triplicate.\nFig. S8. PM inhibits PRCV infection by degrading APN via PIK3C3-mediated autophagy. (A-C) WT ST cells and PIK3C3 KO ST cells were treated with PM (10 mM) and infected with PRCV (0.1 MOI) for 16 h. Then the APN, PIK3C3, ATG14, BECN1, P62, PRCV N and LC3 were detected by western blot (A), and viral titers and PRCV N mRNA level were determined by TCID50 (B) and RT-qPCR (C) . […] The APN, PIK3C3, P62, PRCV N and LC3 were determined by western blot (D). […]"}}, "note": "“Also recorded” adds a separate entry of the source.", "data": [{"compound": "[K+].[K+].[O]=[Mo](=[O])([O-])[O-]", "note": "[PM, potassium molybdate]", "values": [{"measurement": "PRCV entry (internalization)", "setting": "[1]", "result": "blocks PRCV internalization; also recorded: The same results were also demonstrated for PRCV infection"}, {"measurement": "PIK3C3 level, western blot, relative to WT without PM (=1)", "setting": "[2]; Fig. S8A, WT ST cells", "result": 2.83}, {"measurement": "PIK3C3 level, western blot, relative to WT without PM (=1)", "setting": "[2]; Fig. S8D, WT ST cells with pCMV-Myc", "result": 1.73}, {"measurement": "PIK3C3 expression", "setting": "[2]; ST cells, western blot", "result": "activated PIK3C3 expression"}]}]}
